Legend:
MMTV RT [1] = biological target: T1, MMTV RT (Mouse mammary tumor virus, UniProt P03365); assay: MMTV RT activity, filter-based [33P]dNTP incorporation assay on lysed MMTV particles; type: biochemical; design: MMTV particles were isolated and concentrated from MM5MT cells (ATCC) after induction with dexamethasone and insulin; host or cells: MM5MT cells (virus-producing mouse mammary tumour line), induced with dexamethasone and insulin; lysed virions; details: for potency against MMTV RT relative to 3TCppp: more potent than 3TCppp
T1 sequence (P03365 861-1436): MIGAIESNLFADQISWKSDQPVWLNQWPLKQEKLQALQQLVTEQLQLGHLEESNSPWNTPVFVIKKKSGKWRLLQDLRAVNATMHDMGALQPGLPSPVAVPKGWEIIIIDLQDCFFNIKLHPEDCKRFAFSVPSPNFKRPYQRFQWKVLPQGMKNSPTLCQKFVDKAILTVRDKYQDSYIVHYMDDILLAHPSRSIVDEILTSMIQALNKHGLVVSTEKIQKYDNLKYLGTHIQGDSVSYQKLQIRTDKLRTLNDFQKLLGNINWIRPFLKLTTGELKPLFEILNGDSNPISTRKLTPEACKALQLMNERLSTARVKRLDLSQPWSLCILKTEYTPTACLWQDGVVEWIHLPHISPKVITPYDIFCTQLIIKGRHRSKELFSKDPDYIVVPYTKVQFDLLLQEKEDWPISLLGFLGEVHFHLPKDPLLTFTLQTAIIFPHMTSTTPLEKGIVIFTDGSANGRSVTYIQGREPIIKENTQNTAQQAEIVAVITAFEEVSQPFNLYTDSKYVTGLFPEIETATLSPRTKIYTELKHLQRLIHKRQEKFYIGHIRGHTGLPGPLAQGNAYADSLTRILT
Method: MMTV particles were isolated and concentrated from MM5MT cells (ATCC) after induction with dexamethasone and insulin as previously described (Fine, D., et al., In Vitro 12:693-701, 1976). Lysed particles were assayed for RT activity using a standard filter-based, [^33P]dNTP incorporation assay (modified from Wu, J., et al., J. Biol. Chem. 268:9980-9985, 1993). Inhibition of the RT activity was measured by adding the test compounds, the acyclic nucleoside diphosphophosphonates and cyclic nucleoside triphosphates, at various concentrations and 50% inhibitory concentrations (IC50) were calculated for each compound. All compounds tested were active against the MMTV RT. […] The activity of AZTppp against the MMTV RT as previously observed was confirmed with an IC50 value of 0.4 μM.

MMTV RT [2] = biological target: T1, MMTV RT; details: cited from earlier work

SMILES	IC50 (MMTV RT [1]) [µM]	activity against the MMTV RT (MMTV RT [1])	potency against MMTV RT relative to 3TCppp (MMTV RT [1]) [fold]	direct inhibition of the MMTV RT enzyme compared with HIV RT enzyme (MMTV RT [2])
Nc1ccn([C@@H]2CS[C@H](COP(=O)(O)OP(=O)(O)OP(=O)(O)O)O2)c(=O)n1 [3TCppp, reference compound]	108	–	–	–
Nc1nc(=O)n([C@@H]2CS[C@H](COP(=O)(O)OP(=O)(O)OP(=O)(O)O)O2)cc1F [FTCppp, reference compound]	44	–	–	–
C[C@H](Cn1cnc2c(N)ncnc21)OCP(=O)(O)OP(=O)(O)OP(=O)(O)O [PMPApp]	~4	active	25	–
Nc1ncnc2c1ncn2CCOCP(=O)(O)OP(=O)(O)OP(=O)(O)O [PMEApp]	~4	active	25	–
Cc1cn([C@H]2C[C@H](N=[N+]=[N-])[C@@H](COP(=O)(O)OP(=O)(O)OP(=O)(O)O)O2)c(=O)[nH]c1=O [AZTppp, reference compound]	0.4	–	–	as efficiently as the HIV RT enzyme

From patent US20050239753A1, “Methods of inhibition of MMTV-like viruses” (GILEAD SCIENCES, INC., priority 2004, published 2005)
